Data on nine molecules can be found in ChEMBL document CHEMBL1122204 (J Med Chem, 1982).

One data set is described as follows: Approximate pKa value of compound was determined.
Conditions: not given
Type of data set: physicochemical.
Regarding `CC/C(=C(\c1ccccc1)c1ccc(OCCn2cccc2)cc1)c1ccccc1`, the “Approx. pKa” value is -3.8.

The same data set, now with this note: read-out: Approx. pKa.
One may read the pKa as the negative logarithm of the acid dissociation constant. Take `CC/C(=C(\c1ccccc1)c1ccc(OCCN2CCCC2)cc1)c1ccccc1`: the pKa came out at 11.3. Turning to `CC/C(=C(\c1ccccc1)c1ccc(OCCN(C)C)cc1)c1ccccc1` [TAMOXIFEN], the pKa is 10.8. For the molecule `CC/C(=C(\c1ccccc1)c1ccc(OCCN2CCOCC2)cc1)c1ccccc1`, the pKa turned out to be 8.7. Still for that read-out and setting: then `CC/C(=C(\c1ccccc1)c1ccc(OCCN2CCN(C)CC2)cc1)c1ccccc1`, with 9.8.

Consider `CC/C(=C(\c1ccccc1)c1ccc(OCCN(CC)CC)cc1)c1ccccc1`, for which the pKa was determined as 10.9.

With `CC/C(=C(\c1ccccc1)c1ccc(OCCN2CCCCC2)cc1)c1ccccc1`, the pKa amounted to 11.2. The same measure, in the same setting: then `CC/C(=C(\c1ccccc1)c1ccc(OCCCN2CCCC2)cc1)c1ccccc1`, with 11.3. `CC/C(=C(\c1ccccc1)c1ccc(OCCN=C(N)N)cc1)c1ccccc1`: the pKa came to 13.7.
